Measured values as given in patent US20160068843A1 (priority 2012, published 2016).

Test system: H1N1 strain (A/California/07/09 (H1N1)pdm09)
Parameters: species or system mice
Conditions: mouse, in vivo

SMILES: CCOC(=O)C1=C[C@@H](OC(CC)CC)[C@H](NC(C)=O)[C@@H](N)C1 [Tamiflu]
- survival compared with siRNA combination: equivalent
